Assay results from patent US8192962B2, “Processes for detecting toxic substances” (Daikin Industries, Ltd., priority 2001, dated 2012).

Tested on: Genes belonging to other category
Assay: DNA chip mRNA expression in yeast, genes belonging to other category (Table 9)
Type: cell-based, Saccharomyces cerevisiae S288C
How it was run: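 Values are treated/untreated fluorescence ratios from a whole-genome yeast DNA chip hybridized over 12 hours at 65° C with Cy3- or Cy5-labelled cDNA from poly(A) mRNA. Log-phase S288C yeast in YPD at 25° C had received a single toxic chemical for two hours, dosed to slow growth without killing.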

`N#Cc1c(Cl)c(Cl)c(Cl)c(C#N)c1Cl` [(9), 2,4,5,6-tetrachloro-1,3-benzenedicarbonitrile] was tested, and the “The level of expressed mRNA in the presence of chemical substance/The level of expressed mRNA in the absence of chemical substance” value (yeast gene YER009W) was 0.7, the “The level of expressed mRNA in the presence of chemical substance/The level of expressed mRNA in the absence of chemical substance” value (yeast gene YER012W) was 6.7 and the “The level of expressed mRNA in the presence of chemical substance/The level of expressed mRNA in the absence of chemical substance” value (yeast gene YER029C) was 1.4. For the same compound, the “The level of expressed mRNA in the presence of chemical substance/The level of expressed mRNA in the absence of chemical substance” value (yeast gene YER039C) was 1.2, the “The level of expressed mRNA in the presence of chemical substance/The level of expressed mRNA in the absence of chemical substance” value (yeast gene YER094C) was 2.3 and the “The level of expressed mRNA in the presence of chemical substance/The level of expressed mRNA in the absence of chemical substance” value (yeast gene YER098W) was 2.8. For the same compound, the “The level of expressed mRNA in the presence of chemical substance/The level of expressed mRNA in the absence of chemical substance” value (yeast gene YER107C) was 0.4, the “The level of expressed mRNA in the presence of chemical substance/The level of expressed mRNA in the absence of chemical substance” value (yeast gene YER130C) was 0.5 and the “The level of expressed mRNA in the presence of chemical substance/The level of expressed mRNA in the absence of chemical substance” value (yeast gene YER136W) was 1.4. The “The level of expressed mRNA in the presence of chemical substance/The level of expressed mRNA in the absence of chemical substance” value (yeast gene YER177W) was 1.8, the “The level of expressed mRNA in the presence of chemical substance/The level of expressed mRNA in the absence of chemical substance” value (yeast gene YER184C) was 4.6 and the “The level of expressed mRNA in the presence of chemical substance/The level of expressed mRNA in the absence of chemical substance” value (yeast gene YFL022C) was 0.5. For the same compound, the “The level of expressed mRNA in the presence of chemical substance/The level of expressed mRNA in the absence of chemical substance” value (yeast gene YFL028C) was 2.7, the “The level of expressed mRNA in the presence of chemical substance/The level of expressed mRNA in the absence of chemical substance” value (yeast gene YFL038C) was 2.1 and the “The level of expressed mRNA in the presence of chemical substance/The level of expressed mRNA in the absence of chemical substance” value (yeast gene YFL043C) was 2.2. For the same compound, the “The level of expressed mRNA in the presence of chemical substance/The level of expressed mRNA in the absence of chemical substance” value (yeast gene YFR050C) was 3.1, the “The level of expressed mRNA in the presence of chemical substance/The level of expressed mRNA in the absence of chemical substance” value (yeast gene YGL011C) was 2.0 and the “The level of expressed mRNA in the presence of chemical substance/The level of expressed mRNA in the absence of chemical substance” value (yeast gene YGL048C) was 2.4. The “The level of expressed mRNA in the presence of chemical substance/The level of expressed mRNA in the absence of chemical substance” value (yeast gene YGL158W) was −0.4, the “The level of expressed mRNA in the presence of chemical substance/The level of expressed mRNA in the absence of chemical substance” value (yeast gene YGL208W) was 1.4 and the “The level of expressed mRNA in the presence of chemical substance/The level of expressed mRNA in the absence of chemical substance” value (yeast gene YGL229C) was 1.8. For the same compound, the “The level of expressed mRNA in the presence of chemical substance/The level of expressed mRNA in the absence of chemical substance” value (yeast gene YGR120C) was 0.3, the “The level of expressed mRNA in the presence of chemical substance/The level of expressed mRNA in the absence of chemical substance” value (yeast gene YGR131W) was 1.9 and the “The level of expressed mRNA in the presence of chemical substance/The level of expressed mRNA in the absence of chemical substance” value (yeast gene YGR136W) was 2.1. The “The level of expressed mRNA in the presence of chemical substance/The level of expressed mRNA in the absence of chemical substance” value (yeast gene YGR189C) was 0.3, the “The level of expressed mRNA in the presence of chemical substance/The level of expressed mRNA in the absence of chemical substance” value (yeast gene YGR213C) was 7.5 and the “The level of expressed mRNA in the presence of chemical substance/The level of expressed mRNA in the absence of chemical substance” value (yeast gene YGR257C) was 1.5. For the same compound, the “The level of expressed mRNA in the presence of chemical substance/The level of expressed mRNA in the absence of chemical substance” value (yeast gene YHL024W) was 2.1, the “The level of expressed mRNA in the presence of chemical substance/The level of expressed mRNA in the absence of chemical substance” value (yeast gene YHR004C) was 1.1 and the “The level of expressed mRNA in the presence of chemical substance/The level of expressed mRNA in the absence of chemical substance” value (yeast gene YHR012W) was 4.9. For the same compound, the “The level of expressed mRNA in the presence of chemical substance/The level of expressed mRNA in the absence of chemical substance” value (yeast gene YHR071W) was 1.0, the “The level of expressed mRNA in the presence of chemical substance/The level of expressed mRNA in the absence of chemical substance” value (yeast gene YHR109W) was 2.4 and the “The level of expressed mRNA in the presence of chemical substance/The level of expressed mRNA in the absence of chemical substance” value (yeast gene YHR124W) was 3.0. The “The level of expressed mRNA in the presence of chemical substance/The level of expressed mRNA in the absence of chemical substance” value (yeast gene YHR139C) was 107.2, the “The level of expressed mRNA in the presence of chemical substance/The level of expressed mRNA in the absence of chemical substance” value (yeast gene YHR142W) was 0.4 and the “The level of expressed mRNA in the presence of chemical substance/The level of expressed mRNA in the absence of chemical substance” value (yeast gene YHR160C) was 2.3. The “The level of expressed mRNA in the presence of chemical substance/The level of expressed mRNA in the absence of chemical substance” value (yeast gene YHR163W) was 1.4, the “The level of expressed mRNA in the presence of chemical substance/The level of expressed mRNA in the absence of chemical substance” value (yeast gene YHR171W) was 2.1 and the “The level of expressed mRNA in the presence of chemical substance/The level of expressed mRNA in the absence of chemical substance” value (yeast gene YIL123W) was 0.1. For the same compound, the “The level of expressed mRNA in the presence of chemical substance/The level of expressed mRNA in the absence of chemical substance” value (yeast gene YIL140W) was 0.7, the “The level of expressed mRNA in the presence of chemical substance/The level of expressed mRNA in the absence of chemical substance” value (yeast gene YIR018W) was 4.0 and the “The level of expressed mRNA in the presence of chemical substance/The level of expressed mRNA in the absence of chemical substance” value (yeast gene YJL073W) was 1.7. The “The level of expressed mRNA in the presence of chemical substance/The level of expressed mRNA in the absence of chemical substance” value (yeast gene YJL089W) was 1.6, the “The level of expressed mRNA in the presence of chemical substance/The level of expressed mRNA in the absence of chemical substance” value (yeast gene YJL113W) was 1.3 and the “The level of expressed mRNA in the presence of chemical substance/The level of expressed mRNA in the absence of chemical substance” value (yeast gene YJL116C) was 2.4. For the same compound, the “The level of expressed mRNA in the presence of chemical substance/The level of expressed mRNA in the absence of chemical substance” value (yeast gene YJL146W) was 1.0, the “The level of expressed mRNA in the presence of chemical substance/The level of expressed mRNA in the absence of chemical substance” value (yeast gene YJR004C) was 0.3 and the “The level of expressed mRNA in the presence of chemical substance/The level of expressed mRNA in the absence of chemical substance” value (yeast gene YJR036C) was 1.4. The “The level of expressed mRNA in the presence of chemical substance/The level of expressed mRNA in the absence of chemical substance” value (yeast gene YJR058C) was 1.9 and the “The level of expressed mRNA in the presence of chemical substance/The level of expressed mRNA in the absence of chemical substance” value (yeast gene YJR086W) was 1.4.
